Source: ChEMBL document CHEMBL4837265 (ACS Med Chem Lett, 2021)
pEC50, pIC50: −log10 of the molar value. Calls of active or inactive are those of the source. The rule behind the calls is not given here.

Assays:
Assay type in all cases: cell-based
[1] = molecular target: T1, Glucocorticoid receptor (Rattus norvegicus, UniProt P06536); assay: Agonist activity at glucocorticoid receptor in rat INS-1 832/13 cells transfected with CCL2-promoter luciferase plasmid construct assessed as reduction in IL-1 beta induced inflammation by luciferase reporter gene assay
T1 sequence (P06536 whole entry): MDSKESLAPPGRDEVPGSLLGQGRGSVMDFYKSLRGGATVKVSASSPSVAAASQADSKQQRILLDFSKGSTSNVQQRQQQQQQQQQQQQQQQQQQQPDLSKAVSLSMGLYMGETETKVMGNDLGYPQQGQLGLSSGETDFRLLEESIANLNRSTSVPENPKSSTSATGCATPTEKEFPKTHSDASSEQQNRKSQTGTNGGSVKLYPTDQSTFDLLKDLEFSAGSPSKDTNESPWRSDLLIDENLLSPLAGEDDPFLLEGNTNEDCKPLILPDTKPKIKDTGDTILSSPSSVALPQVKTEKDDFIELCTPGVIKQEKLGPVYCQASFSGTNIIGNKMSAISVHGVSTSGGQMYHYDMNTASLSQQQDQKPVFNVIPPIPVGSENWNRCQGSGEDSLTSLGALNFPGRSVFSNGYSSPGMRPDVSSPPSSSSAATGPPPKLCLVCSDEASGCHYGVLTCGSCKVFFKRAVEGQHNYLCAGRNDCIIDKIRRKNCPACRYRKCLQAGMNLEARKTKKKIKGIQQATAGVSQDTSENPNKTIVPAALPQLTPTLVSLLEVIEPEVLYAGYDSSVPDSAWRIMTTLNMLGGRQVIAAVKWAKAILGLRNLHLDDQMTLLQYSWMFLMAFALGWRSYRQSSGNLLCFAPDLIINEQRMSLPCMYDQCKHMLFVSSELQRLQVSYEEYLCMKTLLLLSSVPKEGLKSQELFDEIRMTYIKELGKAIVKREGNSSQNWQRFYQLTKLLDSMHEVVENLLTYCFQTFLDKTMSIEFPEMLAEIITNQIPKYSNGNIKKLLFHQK

[2] = molecular target: T1, Glucocorticoid receptor; assay: Agonist activity at glucocorticoid receptor in rat INS-1 832/13 cells transfected with 3XGRE-promoter luciferase plasmid construct assessed as induction of receptor transactivation by luciferase reporter gene assay
[3] = molecular target: T2, Glucocorticoid receptor (Rattus norvegicus) (UniProt P06536); assay: Agonist activity at glucocorticoid receptor in rat INS-1 832/13 cells assessed as inhibition of glucose-stimulated insulin secretion at 100 nM incubated for 18 hrs by ELISA
T2 sequence (whole entry): T1 sequence (P06536 whole entry)

Compound	pIC50 [1]	pEC50 [2]	inhibition [3]	inhibition ([3]; filed as agonist)
COc1ccc(-n2ncc3c2C=C2CCC[C@H]([C@@H](O)c4ccc(F)cc4)[C@@]2(C)C3)cc1	7.10	4.80		
COc1cc([C@H](O)[C@H]2CCCC3=Cc4c(cnn4-c4ccc(F)cc4)C[C@@]32C)cc(F)c1F	7.80	7.20		
COc1ccc(-n2ncc3c2C=C2CCC[C@H]([C@H](C)O)[C@@]2(C)C3)cc1	9.80	6.60		
C[C@]12Cc3cnn(-c4ccc(F)cc4)c3C=C1CCC[C@@H]2[C@@H](O)c1ccsc1	8.30	6.90		
COc1ccc(-n2ncc3c2C=C2CCC[C@H](C(C)(C)O)[C@@]2(C)C3)cc1	5.60	7.10		
CC(C)(C)[C@H](O)[C@H]1CCCC2=Cc3c(cnn3-c3ccc(F)cc3)C[C@@]21C	9.60	6.10		
Cc1ccc(-n2ncc3c2C=C2CCC[C@H](C(C)(O)c4ccsc4)[C@@]2(C)C3)cc1 (single isomer, unassigned)	7.00	5.80		
C[C@]12Cc3cnn(-c4ccc(F)cc4)c3C=C1CCC[C@@H]2[C@@H](O)c1ccccc1	7.40	7.00	inactive	
Cc1ccc(-n2ncc3c2C=C2CCC[C@H]([C@@H](O)c4ccccc4)[C@@]2(C)C3)cc1	6.40	5.00		
Cc1ccc(-n2ncc3c2C=C2CCC[C@H]([C@@H](O)c4ccsc4)[C@@]2(C)C3)cc1	7.40	5.00		
COc1ccc(-n2ncc3c2C=C2CCC[C@H](C(C)(O)c4ccc(F)cc4)[C@@]2(C)C3)cc1 (single isomer, unassigned)	6.60	6.90		
C[C@H](O)[C@H]1CCCC2=Cc3c(cnn3-c3ccc(F)cc3)C[C@@]21C	8.20	7.20	inactive	
COc1cc([C@@](C)(O)[C@H]2CCCC3=Cc4c(cnn4-c4ccc(F)cc4)C[C@@]32C)cc(F)c1F	8.70	8.20		
Cc1ccc(-n2ncc3c2C=C2CCC[C@H](C(C)(C)O)[C@@]2(C)C3)cc1	7.20	9.40		
Cc1ccc(-n2ncc3c2C=C2CCC[C@H]([C@H](C)O)[C@@]2(C)C3)cc1	9.70	5.80		
COc1ccc(-n2ncc3c2C=C2CCC[C@H](C(C)(O)c4ccsc4)[C@@]2(C)C3)cc1 (single isomer, unassigned)	5.80	5.00		
COc1ccc(-n2ncc3c2C=C2CCC[C@H]([C@@H](O)c4ccsc4)[C@@]2(C)C3)cc1	6.30	5.00		
C[C@]12Cc3cnn(-c4ccc(F)cc4)c3C=C1CCC[C@@H]2[C@@H](O)CC#N	5.80	5.60		
Cc1ccc(-n2ncc3c2C=C2CCC[C@H](C(C)(O)c4ccc(F)cc4)[C@@]2(C)C3)cc1 (single isomer, unassigned)	6.20	6.50		
C[C@]12Cc3cnn(-c4ccc(F)cc4)c3C=C1CCC[C@@H]2[C@](C)(O)c1ccc(F)cc1	8.30	7.80		
C[C@]12Cc3cnn(-c4ccc(F)cc4)c3C=C1CCC[C@@H]2[C@](C)(O)c1ccccc1	8.10	8.40		Active
COc1cc([C@H](O)[C@H]2CCCC3=Cc4c(cnn4-c4ccc(C)cc4)C[C@@]32C)cc(F)c1F	6.80	4.00		
Cc1ccc(-n2ncc3c2C=C2CCC[C@H](C(C)(O)c4ccccc4)[C@@]2(C)C3)cc1 (single isomer, unassigned)	7.50	5.90		
COc1ccc(-n2ncc3c2C=C2CCC[C@H](C(C)(O)c4cc(F)c(F)c(OC)c4)[C@@]2(C)C3)cc1 (single isomer, unassigned)	5.90	5.00		
CC(C)(O)[C@H]1CCCC2=Cc3c(cnn3-c3ccc(F)cc3)C[C@@]21C	7.40	7.20	inactive	
COc1ccc(-n2ncc3c2C=C2CCC[C@H]([C@@H](O)c4ccccc4)[C@@]2(C)C3)cc1	5.90	5.00		
COc1ccc(-n2ncc3c2C=C2CCC[C@H](C(C)(O)c4ccccc4)[C@@]2(C)C3)cc1 (single isomer, unassigned)	6.30	5.30		
Cc1ccc(-n2ncc3c2C=C2CCC[C@H]([C@@H](O)c4ccc(F)cc4)[C@@]2(C)C3)cc1	6.60	4.50		
